# From the NIST ThermoML archive (doi:10.1021/acs.jced.7b00503)
# ± gives the expanded uncertainty stated by the source.
# Experiment: wn = mass fraction of the nth substance listed
# Settings: Pendant drop shape
smiles,measurement,setting,value
[Cl-].[K+] [potassium chloride] + O,surface tension liquid-gas,"293.15 K, w1 = 0.025",73.32 ± 0.84 mN/m
same,surface tension liquid-gas,"293.15 K, w1 = 0.05",73.89 ± 0.85 mN/m
same,surface tension liquid-gas,"293.15 K, w1 = 0.075",74.52 ± 0.85 mN/m
same,surface tension liquid-gas,"293.15 K, w1 = 0.1",75.13 ± 0.85 mN/m
same,surface tension liquid-gas,"293.15 K, w1 = 0.125",75.61 ± 0.86 mN/m
same,surface tension liquid-gas,"293.15 K, w1 = 0.15",76.15 ± 0.86 mN/m
same,surface tension liquid-gas,"293.15 K, w1 = 0.175",77.1 ± 0.87 mN/m
same,surface tension liquid-gas,"293.15 K, w1 = 0.2",77.99 ± 0.87 mN/m
same,surface tension liquid-gas,"303.15 K, w1 = 0.025",71.83 ± 0.84 mN/m
same,surface tension liquid-gas,"303.15 K, w1 = 0.05",72.44 ± 0.84 mN/m
same,surface tension liquid-gas,"303.15 K, w1 = 0.075",73.09 ± 0.84 mN/m
same,surface tension liquid-gas,"303.15 K, w1 = 0.1",73.68 ± 0.85 mN/m
same,surface tension liquid-gas,"303.15 K, w1 = 0.125",74.44 ± 0.85 mN/m
same,surface tension liquid-gas,"303.15 K, w1 = 0.15",75.18 ± 0.86 mN/m
same,surface tension liquid-gas,"303.15 K, w1 = 0.175",75.74 ± 0.86 mN/m
same,surface tension liquid-gas,"303.15 K, w1 = 0.2",76.32 ± 0.86 mN/m
same,surface tension liquid-gas,"313.15 K, w1 = 0.025",70.27 ± 0.83 mN/m
same,surface tension liquid-gas,"313.15 K, w1 = 0.05",71.05 ± 0.83 mN/m
same,surface tension liquid-gas,"313.15 K, w1 = 0.075",71.66 ± 0.84 mN/m
same,surface tension liquid-gas,"313.15 K, w1 = 0.1",72.24 ± 0.84 mN/m
same,surface tension liquid-gas,"313.15 K, w1 = 0.125",72.88 ± 0.84 mN/m
same,surface tension liquid-gas,"313.15 K, w1 = 0.15",73.56 ± 0.85 mN/m
same,surface tension liquid-gas,"313.15 K, w1 = 0.175",74.18 ± 0.85 mN/m
same,surface tension liquid-gas,"313.15 K, w1 = 0.2",74.82 ± 0.85 mN/m
same,surface tension liquid-gas,"323.15 K, w1 = 0.025",68.58 ± 0.82 mN/m
same,surface tension liquid-gas,"323.15 K, w1 = 0.05",69.17 ± 0.82 mN/m
same,surface tension liquid-gas,"323.15 K, w1 = 0.075",69.84 ± 0.83 mN/m
same,surface tension liquid-gas,"323.15 K, w1 = 0.1",70.49 ± 0.83 mN/m
same,surface tension liquid-gas,"323.15 K, w1 = 0.125",71.12 ± 0.84 mN/m
same,surface tension liquid-gas,"323.15 K, w1 = 0.15",71.74 ± 0.84 mN/m
same,surface tension liquid-gas,"323.15 K, w1 = 0.175",72.36 ± 0.84 mN/m
same,surface tension liquid-gas,"323.15 K, w1 = 0.2",73 ± 0.85 mN/m
same,surface tension liquid-gas,"333.15 K, w1 = 0.025",66.95 ± 0.81 mN/m
same,surface tension liquid-gas,"333.15 K, w1 = 0.05",67.7 ± 0.82 mN/m
same,surface tension liquid-gas,"333.15 K, w1 = 0.075",68.21 ± 0.82 mN/m
same,surface tension liquid-gas,"333.15 K, w1 = 0.1",68.76 ± 0.82 mN/m
same,surface tension liquid-gas,"333.15 K, w1 = 0.125",69.37 ± 0.83 mN/m
same,surface tension liquid-gas,"333.15 K, w1 = 0.15",69.83 ± 0.83 mN/m
same,surface tension liquid-gas,"333.15 K, w1 = 0.175",70.47 ± 0.83 mN/m
same,surface tension liquid-gas,"333.15 K, w1 = 0.2",71.1 ± 0.84 mN/m
same,surface tension liquid-gas,"343.15 K, w1 = 0.025",65 ± 0.8 mN/m
same,surface tension liquid-gas,"343.15 K, w1 = 0.05",65.55 ± 0.81 mN/m
same,surface tension liquid-gas,"343.15 K, w1 = 0.075",66.46 ± 0.81 mN/m
same,surface tension liquid-gas,"343.15 K, w1 = 0.1",67.35 ± 0.82 mN/m
same,surface tension liquid-gas,"343.15 K, w1 = 0.125",67.94 ± 0.82 mN/m
same,surface tension liquid-gas,"343.15 K, w1 = 0.15",68.47 ± 0.82 mN/m
same,surface tension liquid-gas,"343.15 K, w1 = 0.175",69.17 ± 0.83 mN/m
same,surface tension liquid-gas,"343.15 K, w1 = 0.2",69.81 ± 0.83 mN/m
same,surface tension liquid-gas,"353.15 K, w1 = 0.025",63.25 ± 0.8 mN/m
same,surface tension liquid-gas,"353.15 K, w1 = 0.05",63.91 ± 0.8 mN/m
same,surface tension liquid-gas,"353.15 K, w1 = 0.075",64.64 ± 0.8 mN/m
same,surface tension liquid-gas,"353.15 K, w1 = 0.1",65.37 ± 0.81 mN/m
same,surface tension liquid-gas,"353.15 K, w1 = 0.125",66.05 ± 0.81 mN/m
same,surface tension liquid-gas,"353.15 K, w1 = 0.15",66.73 ± 0.81 mN/m
same,surface tension liquid-gas,"353.15 K, w1 = 0.175",67.35 ± 0.82 mN/m
same,surface tension liquid-gas,"353.15 K, w1 = 0.2",68.12 ± 0.82 mN/m
